On the set-up of series [1]: method as in PMID 18384990, PMID 29077076. The note with it: toxicities to organs only at high concentrations; cited from earlier work.
In series [2] the target is T1, E6-Caspase 8 binding (Human papillomavirus type 16, UniProt P03126).
T1 construct: made in house; host or cells: E. coli
Nature of the series: biochemical. Also on record: species or system HPV E6, human Caspase 8. The note with it: for inhibitory activity against E6-caspase 8 binding relative to GA (in words): SAR of analogs, Figure 6A; for activity against E6-caspase 8 binding, deviation from the parent compound (less active): relative to gambogic acid. How it is done: The compounds were diluted to a working concentration in DMSO and screened at a single-point final concentration of 10 μM with no replicates. Briefly, 75 nL of each compound was transferred and added to wells of the destination 384-well plate using the Echo dispenser to 4 μL of blocking solution. 4 μL of 800 nM GST-E6 and 4 μL of His6-Caspase 8 were added and pre-incubated at room temperature for 60 minutes. 8 μL of the donor and acceptor bead mixture (final concentration of 20 μg/ml) was then added. The plates were sealed and incubated for 4 hours at room temperature before the plates were read using the EnvisionTM Multi-Label plate reader (Perkin Elmer Inc.). […] A 10-point serial dilution of these compounds was done for dose-dependency reconfirmation. Dose response inhibition curves were constructed and IC50 calculated using GraphPad Prism using four parameter non-linear regression analysis.
The first counter-screen assay was based using the GST-His6 fusion peptide as the E6-binding partner instead of GST-E6-His6-Caspase 8. Hit candidate compounds from the primary screen were prepared using a 6-point serial dilution. Using an Echo dispenser, compounds were transferred to plates containing 4 μL of blocking buffer. 8 μL of 5 nM GST-His6 peptide substrate was then added. The mixture was pre-incubated at room temperature for 60 minutes. Glutathione donor and nickel chelate acceptor beads (final concentration 20 μg/mL) were added and incubated for another 60 minutes at room temperature. Dose-dependency of the compounds using GST-E6-His6-Caspase 8 was performed in parallel using the same protocol as in the primary screen. The signals were then read using the Envision™ plate reader.
(§1) Using the SciFinder and Zinc15 databases, we searched and identified several gambogic acid structural analogs. A subset of these analogues was commercially available and we purchased 8. The 8 analogs were obtained as follow: gambogenic amide (Enzo Life Sciences), gambogenic acid (Selleckchem), morellic acid (Aobious), 30-hydroxy gambogic acid (Quality Phytochemicals, LLC), acetyl gambogic acid (Microsource), and gambogin, neogambogic acid and isomorellinol (MolPort Natural Products). Additional gambogic acid was purchased from Tocris. The interactions of the analogues with E6-caspase 8 was tested using AlphaScreen™ technology using the same protocol as with the primary screen, and were compared to the parent compound. The effect on cell viability was also similarly done in HPV^+ and HPV^- cell lines via the MTT assay (see below) and potency was determined using GraphPad IC50 curve fitting.

In series [3] the target is T2, E6-E6AP binding (Human papillomavirus type 16, UniProt P03126).
T2 construct: made in house; host or cells: E. coli
T2 sequence (P03126 whole entry): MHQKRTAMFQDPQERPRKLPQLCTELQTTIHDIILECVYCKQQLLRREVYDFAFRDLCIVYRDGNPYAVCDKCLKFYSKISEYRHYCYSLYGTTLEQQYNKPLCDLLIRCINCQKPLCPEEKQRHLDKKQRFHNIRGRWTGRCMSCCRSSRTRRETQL
Briefly: biochemical. Details: species or system HPV E6. The source says: Compounds that passed the two counter-screens were subjected to cheminformatic analysis as an additional filter for recognition and exclusion of compounds with problematic substructures. These substructures contain functional groups that may disrupt binding in many unrelated biochemical assays in a non-specific manner. Specifically, from the names and SMILES of the hit compounds we queried the following databases to find hits with pan assay interference (PAINS) patterns: Zinc15, SwissADME, FAFdrugs4 and PAINS-Remover. Compounds that made it onto the consensus list as having no PAINS patterns after filtering with these online tools were then selected. We then cross-validated the selected compound(s) with a related but different primary screen assay. Specifically, we replaced the caspase 8 used in the primary screen with E6AP and evaluated the inhibitory activity against E6 binding to E6AP (E6-E6AP) using the same steps as in the AlphaScreen™ protocol described above.

The test system of series [4] is HPV+ HNSCC cell line SCC104. Briefly: MTT cell viability assay of analogs in SCC104. The note with it: SCC104, 24 hr; for activity / potency in cell-based MTT assay (in words): Figure 6B. It is filed as cell-based.
Source text: as §1
(§2) All working concentrations were diluted in PBS to the desired concentration before use. To test the effect of gambogic acid and/or its derivatives on cell viability, all cell lines were seeded at 2 × 10^4 per well in 96-well plates and allowed to adhere overnight. Various concentrations of the analogues were added and the cells incubated at 37°C for 24 hr. Viability was then measured using the MTT assay, performed as described previously. All experiments were repeated at least three times (three biological replicates, carried out on different days). Data presented are from a representative experiment. Cell viability and potency were assessed from % inhibition relative to the vehicle control, and IC50 dose curves were generated using GraphPad Prism.
On the technique in general: Tetrazolium assays rely on reduction of a dye to a coloured formazan, in cell work by metabolically active cells.

Series [5] deals with SCC104 (HPV+). Nature of the series: Colony formation assay, SCC104. It is filed as cell-based. The note with it: 24 hours treatment then seeded. How it is done:
(§3) Sub-confluent monolayer cells were treated with different doses of GA-OH for 24 hours. Cells were trypsinized and re-suspended before re-plating into 6 well plates in DMEM or MEM at 500–1000 cell densities, depending on the cell line. Cells were then allowed to grow for 10–20 days, depending on the cell line, before fixing and staining. A mixture of methanol/acetic acid was used for fixing, followed by 0.5% crystal violet staining. Plates were imaged using UV imager, and colonies with more than […] counted using image J. Surviving fractions were determined by dividing the number of colonies by the number of cells seeded as a product of the corresponding plating efficiency. Survival fractions curves were plotted using GraphPad Prism.

Series [6] has as its system HPV+ (SCC47, SCC090, SCC104, SCC152) and HPV- (SCC19, SCC29, SCC49, SCC84) HNSCC cell lines. Nature of the series: MTT cell viability, HNSCC cell line panel. It is filed as cell-based. The note with it: 24 hr, Figure 7A. The method, then:
as §2

Series [7] concerns p53, p21, caspase 8 in SCC90 and SCC104 cells. Briefly: Western blotting of p53, p21 and caspase 8 in HPV+ cells. In kind it is cell-based. To be noted: 24 hours. How it is done: Adherent cells were washed with ice cold PBS. Cell lysis buffer containing protease inhibitor cocktail was added and cells were scraped off into a tube on ice. The cells were incubated on ice for 10 minutes. Cell lysates were separated by SDS-PAGE and electrophoretically transferred to PVDF membranes. Following blocking, antibodies directed against caspase 8, p53, cleaved PARP, cleaved caspase 3, p21, and β-actin (Cell signaling) were applied at 1:5000 dilution. Anti-mouse and anti-rabbit secondary antibodies were then employed (LI-COR Biosciences, Lincoln, NE, USA). Signals were measured using the Odyssey Infrared Imaging system (LI-COR Biosciences) and quantified using Image J.

Series [8] has as its system SCC19 (HPV-). Briefly: Colony formation assay, SCC19. In kind it is cell-based. The note with it: 24 hours treatment then seeded. How it is done:
as §3

Series [9] relates to Caspase 3/7 activity in SCC19, SCC84. Briefly: Caspase 3/7 Glo activity assay, HPV- cell lines. It is filed as cell-based. The note with it: 0.75 μM, 24 hr. How it is done:
(§4) Cells were seeded into white walled 96-well plates at 2 × 10^4 cells per well in 100 μL media and incubated overnight. GA-OH (0.75 μM) and vehicle were then added and incubated at 37°C for 24 hr. Caspase 3/7 activity was measured using the Caspase 3/7 Glo kit (Promega, Fitchburg, WI, USA) following the manufacturer's instructions. Briefly, room temperature-equilibrated Caspase-Glo reagent was added (Promega) to each well. The plate was mixed by placing it on an orbital shaker and incubated for 30 secs at room temperature, then incubated at room temperature. After a 2-hr incubation, luminescence was measured using a plate-reading fluorimeter (Flx800, Bio-Tek Instrument Co., Winooski, VT, USA). Background activity (blank reaction) was subtracted from all experimental wells. Percent activity of caspase 3/7 in wells treated with GA was then expressed relative to vehicle treated wells.

Series [10] relates to Caspase 3/7 activity in SCC090, SCC104, SiHa. Briefly: Caspase 3/7 Glo activity assay, HPV+ cell lines. The note with it: 0.75 μM, 24 hr. In kind it is cell-based. How it is done: as §4

Read-outs that look alike come from different tables or passages of the source.

T1 sequence (P03126 whole entry): as above

As a reminder, the IC50 is the concentration that gives 50% inhibition. With `CC(C)=CCC[C@]1(C)C=Cc2c(O)c3c(c(CC=C(C)C)c2O1)O[C@]12C(=C[C@@H]4C[C@H]1C(C)(C)O[C@@]2(C/C=C(/C)C(=O)O)C4=O)C3=O` [gambogic acid], the “tolerability in animal studies” value in series [1] is “relatively tolerable”. In addition, the IC50 in [2] (11 compounds that passed counter-screening (Supplementary Table 3), read-out: IC50 against E6-Caspase 8 binding) is 2000 nM; in series [2] (head-to-head comparison gambogic acid vs myricetin (Figure 4A), read-out: IC50 against E6-Caspase 8) it was 1900 nM; in series [3], 1700 nM.
Take `CC(C)=CCc1c2c(c(O)c3c1O[C@]14C(=C[C@@H]5C[C@H]1C(C)(C)O[C@@]4(C/C=C(/C)C(=O)O)C5=O)C3=O)C=CC(C)(C)O2` [analog #2, morellic acid]: in series [2], the “inhibitory activity against E6-caspase 8 binding relative to GA (in words)” value was “did not significantly affect the activity”.
Regarding `CC(C)=CCCC1(C)C=Cc2c(O)c3c(c(CC=C(C)C)c2O1)O[C@]12C(=CC4C[C@H]1C(C)(C)OC2(CC=C(C)C)C4=O)C3=O` (stereo partly drawn) [analog #6, gambogin], the “activity against E6-caspase 8 binding, deviation from the parent compound (less active)” value in series [2] is given as above 3 logs. The “rank of highest IC50 relative to the parent compound, MTT” value in [4] was “first”.
For the molecule `CC(C)=CCc1c2c(c(O)c3c1OC14C(=CC5CC1C(C)(C)OC4(C/C=C(\C)CO)C5=O)C3=O)C=CC(C)(C)O2` (stereo not drawn) [analog #7, iso morellinol], the “inhibitory activity against E6-caspase 8 binding relative to GA (in words)” value in series [2] is listed as “did not significantly affect the activity”.
As to `CC(C)=CCC[C@]1(C)C=Cc2c(O)c3c(c(CC=C(C)C)c2O1)O[C@]12C(=C[C@@H]4CC1C(C)(C)O[C@@]2(C/C=C(/C)C(N)=O)C4=O)C3=O` [analog #4, gambogic amide], the “inhibitory activity against E6-caspase 8 binding relative to GA (in words)” value in [2] was “did not significantly affect the activity”.
Consider `CC(C)=CCCC1(C)CC(O)c2c(O)c3c(c(CC=C(C)C)c2O1)OC12C(=CC4CC1C(C)(C)OC2(C/C=C(\C)C(=O)O)C4=O)C3=O` (stereo not drawn) [analog #5, neo-gambogic acid], for which the “activity against E6-caspase 8 binding, deviation from the parent compound (less active)” value in series [2] is recorded as above 3 logs. Further, the “rank of highest IC50 relative to the parent compound, MTT” value in series [4] was “fourth”.
For the molecule `CC(C)=CCCC1(C)C=Cc2c(O)c3c(c(CC=C(C)C)c2O1)OC12C(=CC4CC1C(C)(C)OC2(CC=C(CO)C(=O)O)C4=O)C3=O` (stereo not drawn) [GA-OH, 30-hydroxygambogic acid], the number of colonies result is “significantly and dose-dependently reduced” in series [5]; “did not exhibit significant reduction relative to their control except at high concentrations” in series [8]. The “sensitivity of HPV+ versus HPV- HNSCC cell lines, MTT cell viability” value in [6] is listed as “higher sensitivity”. Moreover, the “inhibitory activity against E6-caspase 8 binding relative to GA (in words)” value in series [2] is reported as “more effectively inhibited E6 binding to caspase 8 than any of the other analogs or the parent compound”. Also, the “caspase 8 cleavage by western blot” value in [7] (HPV+ cells, 0.5 μM and 1 μM) is recorded as “cleavage of caspase 8 in a dose-dependent manner”. The “p53 level by immunoblotting” value in series [7] (SCC90 and SCC104, 0.5 μM and 1 μM) is reported as “increase of p53”. Besides, the “p21 level by immunoblotting” value in series [7] (compared to vehicle control, 0.5 μM and 1 μM) is listed as “robust induction”. The “apoptosis activity (Caspase 3/7 activity)” value in series [9] was “little to no apoptosis activity”. For the same molecule, the “activity / potency in cell-based MTT assay (in words)” value in [4] is “highest potency of all analogs”. Besides, the “apoptosis induction (Caspase 3/7 activity)” value in series [10] is “Significant apoptosis induction”.
`O=c1c(O)c(-c2cc(O)c(O)c(O)c2)oc2cc(O)cc(O)c12` [myricetin, reference compound]: the IC50 in series [2] (IC50 against E6-Caspase 8) turned out to be 4600 nM; in [3], 5600 nM.
On to `CC(=O)Oc1c2c(c(CC=C(C)C)c3c1C(=O)C1=C[C@@H]4CC5C(C)(C)OC(C/C=C(\C)C(=O)O)(C4=O)[C@@]15O3)OC(C)(CCC=C(C)C)C=C2` (stereo partly drawn) [analog #8, acetyl iso-gambogic acid], for which the “inhibitory activity against E6-caspase 8 binding relative to GA (in words)” value in series [2] is listed as “did not significantly affect the activity”. Besides, the “activity / potency in cell-based MTT assay (in words)” value in [4] is “diminished activity”.
For the molecule `CC(C)=CCC/C(C)=C/Cc1c(O)c(CC=C(C)C)c2c(c1O)C(=O)C1=C[C@@H]3C[C@H]4C(C)(C)O[C@@](C/C=C(/C)C(=O)O)(C3=O)[C@@]14O2` [analog #3, gambogenic acid], the “activity against E6-caspase 8 binding, deviation from the parent compound (less active)” value in series [2] is recorded as above 3 logs. In addition, the “rank of highest IC50 relative to the parent compound, MTT” value in series [4] is “third”.

Values taken from paper PMC7984827, “A high-content AlphaScreen™ identifies E6-specific small molecule inhibitors as potential therapeutics for HPV^+ head and neck squamous cell carcinomas” (Oncotarget, 2021).
